# From US11858909B2, “Deuterated etoricoxib, methods of manufacture, and use thereof” (Tremeau Pharmaceuticals, Inc., priority 2021, dated 2024)
# Where two headings read alike, the source gives them in different places.
# Key:
# [1] = Single dose crossover pharmacokinetic study in dogs; assay type: in vivo; conditions: for AUC / Cmax: male, dog, plasma, po, single oral (gavage) dose, d3-etoricoxib 2.00 mg/kg, etoricoxib 1.98 mg/kg
# Protocol: A single dose crossover study was conducted to compare the pharmacokinetics of d3-etoricoxib and non-isotopically enriched etoricoxib in dogs. Four male dogs were dosed, and animals received each of the following treatments sequentially, with a minimum of four days washout between doses.
# Blood samples were taken at 0.083, 0.25, 0.5, 1, 2, 4, 6, 8, 12, and 24 hours post-dose. Plasma was analyzed for d3-etoricoxib or non-isotopically enriched etoricoxib concentration.
# [2] = system: human liver microsomes; assay: Metabolic stability with human liver microsomes (formation of M1 / d2-M1 metabolite); assay type: in vitro ADME; conditions: human liver microsomes 0.5 mg/mL, 1 μM, over 60 minutes, NADPH and UDPGA
# Protocol: The metabolic stability of non-isotopically enriched etoricoxib and d3-etoricoxib, with human liver microsomes was evaluated.
# Etoricoxib is extensively metabolized in humans with <1% of a dose recovered in urine as the parent drug. The primary pathway for metabolism of etoricoxib in humans is through the production of the methylhydroxy metabolite of etoricoxib (“M1”). Metabolism of etoricoxib involves conversion primarily to the “M1” derivative, mainly (ca. 60%) by CYP3A4, with less contribution by CYPs 1A2, 2C9, 2C19 and 2D6 (ca. 40% collectively). See, e.g., Arcoxia® (etoricoxib) Australian Product Information, available at http://apps.medicines.org.au/files/mkparcox.pdf (last visited Apr. 9, 2021), the contents of which are herein incorporated by reference in their entirety. Production of the “M1” metabolite and d3-etoricoxib (“d2-M1”) was evaluated in this experiment throughout the incubation period.
# [3] = biological target: T1, CYP3A4 (Homo sapiens, UniProt P08684); assay: Metabolic stability in CYP3A4 incubations (formation of methylhydroxy metabolites); assay type: in vitro ADME; set-up: purchased Corning 456202; conditions: for Formation of methylhydroxy metabolite relative to M1 formed from etoricoxib: human recombinant CYP3A4, over time (to 40 min), 1 μM; for Susceptibility to metabolism by CYP3A4 compared with non-isotopically enriched etoricoxib: human recombinant CYP3A4 incubations
# T1 sequence (P08684 whole entry): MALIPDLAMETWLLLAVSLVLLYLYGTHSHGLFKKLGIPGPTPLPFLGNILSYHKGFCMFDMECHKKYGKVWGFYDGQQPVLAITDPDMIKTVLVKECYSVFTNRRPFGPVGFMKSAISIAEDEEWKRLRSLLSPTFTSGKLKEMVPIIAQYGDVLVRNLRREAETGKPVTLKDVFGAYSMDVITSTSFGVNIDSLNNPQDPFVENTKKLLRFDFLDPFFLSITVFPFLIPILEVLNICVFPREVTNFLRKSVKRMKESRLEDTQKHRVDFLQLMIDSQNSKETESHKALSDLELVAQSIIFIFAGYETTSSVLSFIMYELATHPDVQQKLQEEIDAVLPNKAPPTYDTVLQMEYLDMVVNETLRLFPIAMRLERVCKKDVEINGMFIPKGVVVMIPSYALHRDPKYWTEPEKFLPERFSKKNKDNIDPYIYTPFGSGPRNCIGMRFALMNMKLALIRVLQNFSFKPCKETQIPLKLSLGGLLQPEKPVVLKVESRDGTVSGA
# Protocol: The metabolic stability of non-isotopically enriched etoricoxib, d3-etoricoxib, and an alternate deuterated form of etoricoxib, d4-etoricoxib (5-chloro-6′-methyl-3-(4-(methylsulfonyl)phenyl-2,3,5,6-d4)-2,3′-bipyridine, CAS No.: 1131345-14-6), in CYP3A4 incubations was evaluated. d4-Etoricoxib has the chemical structure:
# Human recombinant CYP3A4 (Corning, item #456202, lot #9322001) was chosen for the assay conditions as CYP3A4 is the principle enzyme responsible for the metabolism of etoricoxib in humans. Formation of the methylhydroxy metabolites formed from etoricoxib, d3-etoricoxib, and d4-etoricoxib was monitored over time (Table 5, FIGS. 13 and 14).
# [4] = humans; cited from earlier work
# [5] = biological target: T1, CYP3A4; conditions: humans; cited from earlier work
# [6] = system: CYPs 1A2, 2C9, 2C19 and 2D6; conditions: humans; cited from earlier work
# [7] = equivalent oral doses, four male dogs
# [8] = four male dogs, oral (gavage), 2.00 vs 1.98 mg/kg
# [9] = Animal 1001, male dog, read-out: AUC0.5-24 h
# [10] = Animal 1001, male dog, read-out: Cmax
# [11] = Animal 1002, male dog, read-out: AUC0.5-24 h
# [12] = Animal 1002, male dog, read-out: Cmax
# [13] = Animal 1003, male dog, read-out: AUC0.5-24 h
# [14] = Animal 1003, male dog, read-out: Cmax
# [15] = Animal 1004, male dog, read-out: AUC0.5-24 h
# [16] = Animal 1004, male dog, read-out: Cmax
# [17] = Mean (SD) of four male dogs, read-out: AUC0.5-24 h, Mean (SD)
# [18] = Mean (SD) of four male dogs, read-out: Cmax, Mean (SD)
"AUC [1, 9] [ng·h/mL]","Cmax [1, 10] [ng/mL]","AUC [1, 11] [ng·h/mL]","Cmax [1, 12] [ng/mL]","AUC [1, 13] [ng·h/mL]","Cmax [1, 14] [ng/mL]","AUC [1, 15] [ng·h/mL]","Cmax [1, 16] [ng/mL]","AUC [1, 17] [ng·h/mL]","Cmax [1, 18] [ng/mL]",Formation of methylhydroxy metabolite relative to M1 formed from etoricoxib [3],Susceptibility to metabolism by CYP3A4 compared with non-isotopically enriched etoricoxib [3],Compound,further results
516,628,1020,791,1260,593,658,317,865,604,about six-fold lower,substantially different,"[2H]C([2H])([2H])c1ccc(-c2ncc(Cl)cc2-c2ccc(S(C)(=O)=O)cc2)cn1 [d3-etoricoxib, 5-chloro-6′-(methyl-d3)-3-(4-(methylsulfonyl)phenyl)-2,3′-bipyridine]","Cmax relative to non-isotopically enriched etoricoxib [1, 7]: higher Cmax; Metabolism in dogs relative to non-isotopically enriched etoricoxib [1, 7]: substantially resistant to metabolism; Total exposure (AUC) relative to non-isotopically enriched etoricoxib [1, 7]: higher total exposure; AUC0.5-24 h, Average % delta d3-etoricoxib vs etoricoxib [1, 8]: +48.6%; Cmax, Average % delta d3-etoricoxib vs etoricoxib [1, 8]: +54.9%; Amount of d2-M1 metabolite formed relative to M1 formed from etoricoxib [2]: approximately three-fold less"
,,,,,,,,,,similar,almost identical,"[2H]c1c([2H])c(S(C)(=O)=O)c([2H])c([2H])c1-c1cc(Cl)cnc1-c1ccc(C)nc1 [d4-etoricoxib, 5-chloro-6′-methyl-3-(4-(methylsulfonyl)phenyl-2,3,5,6-d4)-2,3′-bipyridine, reference compound]",
342,259,606,426,1130,670,336,206,582,390,,,Cc1ccc(-c2ncc(Cl)cc2-c2ccc(S(C)(=O)=O)cc2)cn1 [etoricoxib],"Dose recovered in urine as the parent drug [4]: < 1%; Share of conversion to the M1 derivative by CYP3A4 [5]: ca. 60%; Share of conversion to the M1 derivative by CYPs 1A2, 2C9, 2C19 and 2D6 collectively [6]: ca. 40%"
